Assay results published in patent US9815796B2 (Merck Sharp & Dohme Corp., priority 2013, dated 2017).

The molecules below were run against Rhesus PDE2A3 (Macaca mulatta, UniProt B3VTJ2) (assay: PDE2 fluorescence polarization (IMAP FP) inhibition assay, rhesus enzyme). Settings: Rhesus PDE2, Lab A, at 1 uM; read-out: Rhesus PDE2 % inh. at 1 uM - Lab A.
Assay type: biochemical, rhesus macaque
Method in brief: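 IMAP FP (mP from parallel and perpendicular fluorescence against substrate-only control) was read ≥1 h after adding binding reagent. The preceding 60 min room-temperature reaction contained FAM-cAMP (50 nM) and cGMP (1 uM) in pH 7.2 Tris buffer with MgCl2 and DTT. Enzyme was supernatant of sonicated AD293 cells expressing rhesus PDE2A3; compounds were 3-fold titrated, DMSO 1% final.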

Sequence of Rhesus PDE2A3 (B3VTJ2 1-941): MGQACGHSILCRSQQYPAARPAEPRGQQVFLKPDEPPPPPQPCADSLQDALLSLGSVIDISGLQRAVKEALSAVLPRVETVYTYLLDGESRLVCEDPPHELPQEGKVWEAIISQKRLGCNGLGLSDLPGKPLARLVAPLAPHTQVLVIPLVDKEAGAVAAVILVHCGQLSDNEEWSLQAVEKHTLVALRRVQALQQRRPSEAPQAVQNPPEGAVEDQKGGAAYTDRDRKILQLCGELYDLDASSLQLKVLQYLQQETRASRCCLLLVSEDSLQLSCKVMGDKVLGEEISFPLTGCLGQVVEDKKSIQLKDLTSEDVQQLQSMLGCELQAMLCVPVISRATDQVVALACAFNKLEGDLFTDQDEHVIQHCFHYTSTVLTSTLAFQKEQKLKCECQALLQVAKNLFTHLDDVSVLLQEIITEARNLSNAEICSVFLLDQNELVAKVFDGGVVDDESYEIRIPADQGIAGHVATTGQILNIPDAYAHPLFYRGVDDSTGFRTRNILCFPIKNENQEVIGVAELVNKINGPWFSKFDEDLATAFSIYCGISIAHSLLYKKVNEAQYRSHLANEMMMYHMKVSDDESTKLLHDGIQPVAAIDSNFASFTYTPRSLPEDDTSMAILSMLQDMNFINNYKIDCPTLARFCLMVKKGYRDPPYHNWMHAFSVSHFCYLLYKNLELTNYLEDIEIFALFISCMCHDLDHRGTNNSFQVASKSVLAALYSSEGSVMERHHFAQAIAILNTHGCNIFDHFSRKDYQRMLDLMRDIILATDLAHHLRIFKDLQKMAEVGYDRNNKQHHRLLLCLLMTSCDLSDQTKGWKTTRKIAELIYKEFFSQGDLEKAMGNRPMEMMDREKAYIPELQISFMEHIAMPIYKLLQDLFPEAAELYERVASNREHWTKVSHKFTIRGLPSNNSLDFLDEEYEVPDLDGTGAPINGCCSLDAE

inhibition at 1 µM [%] | SMILES
46 | CC(C)(C)c1ccc(CCNC(=O)c2cc(=O)[nH]c(-c3ccccc3)n2)cc1 [Example 375, N-[2-(4-tert-butylphenyl)ethyl]-6-oxo-2-phenyl-1,6-dihydropyrimidine-4-carboxamide]

Same assay, conditions: Rhesus PDE2, Lab A; read-out: Rhesus PDE2 Ki (nM) - Lab A

Ki [nM] | SMILES
334 | CC(NC(=O)c1cc(=O)[nH]c(-c2ccccc2)n1)c1ccc(C#N)cc1 (centres unmarked) [Example 370, N-[1-(4-cyanophenyl)ethyl]-6-oxo-2-phenyl-1,6-dihydropyrimidine-4-carboxamide]
1000 | CC(C)(C)c1ccc(CCNC(=O)c2cc(=O)[nH]c(-c3ccccc3)n2)cc1 [Example 375, N-[2-(4-tert-butylphenyl)ethyl]-6-oxo-2-phenyl-1,6-dihydropyrimidine-4-carboxamide]
~672 | CC(NC(=O)c1cc(=O)[nH]c(-c2ccccc2)n1)c1ccc2c(c1)OCO2 (centres unmarked) [Example 376, N-[1-(1,3-benzodioxol-5-yl)ethyl]-6-oxo-2-phenyl-1,6-dihydropyrimidine-4-carboxamide]

Same assay, conditions: Rhesus PDE2, Lab B; read-out: Rhesus PDE2 Ki (nM) - Lab B

SMILES | Ki [nM]
O=C(NC1(c2ccccc2OC(F)(F)F)CC1)c1cc(=O)[nH]c(-c2ccccc2)n1 [Example 380, 6-oxo-2-phenyl-N-{1-[2-(trifluoromethoxy)phenyl]cyclopropyl}-1,6-dihydropyrimidine-4-carboxamide] | 353
CC(NC(=O)c1cc(=O)[nH]c(-c2ccccc2)n1)c1ccc(-c2ccncc2)cc1 (centres unmarked) [Example 384, 6-oxo-2-phenyl-N-[1-(4-pyridin-4-ylphenyl)ethyl]-1,6-dihydropyrimidine-4-carboxamide] | 319
CC(NC(=O)c1cc(=O)[nH]c(-c2ccccc2)n1)c1cccc(-c2ccc(F)cc2)c1 (centres unmarked) [Example 396, N-[1-(4′-fluorobiphenyl-3-yl)ethyl]-6-oxo-2-phenyl-1,6-dihydropyrimidine-4-carboxamide] | ~20300
O=C(c1cc(=O)[nH]c(-c2ccccc2)n1)N1Cc2cnc(-c3ccccc3)nc2C1 [Example 409, 2-phenyl-6-[(2-phenyl-5,7-dihydro-6H-pyrrolo[3,4-d]pyrimidin-6-yl)carbonyl]pyrimidin-4(3H)-one] | 3930
CC(NC(=O)c1cc(=O)[nH]c(-c2ccccc2)n1)c1cccc(-c2ccccc2)c1 (centres unmarked) [Example 410, N-(1-biphenyl-3-ylethyl)-6-oxo-2-phenyl-1,6-dihydropyrimidine-4-carboxamide] | 1960
O=C(NC1(c2ccccc2OC(F)(F)F)CCC1)c1cc(=O)[nH]c(-c2ccccc2)n1 [Example 411, 6-oxo-2-phenyl-N-{1-[2-(trifluoromethoxy)phenyl]cyclobutyl}-1,6-dihydropyrimidine-4-carboxamide] | 1460
C[C@@H](NC(=O)c1cc(=O)[nH]c(-c2ncccn2)n1)c1cc(F)c(C(F)(F)F)cc1F [Example 429, N-{(1R)-1-[2,5-difluoro-4-(trifluoromethyl)phenyl]ethyl}-6-oxo-1,6-dihydro-2,2′-bipyrimidine-4-carboxamide] | 42
C[C@H](O)[C@@H](NC(=O)c1cc(=O)[nH]c(-c2ncccn2)n1)c1ccc(C(F)(F)F)cc1 [Example 430, N-{(1S,2)S-2-hydroxy-1-[4-(trifluoromethyl)phenyl]propyl}-6-oxo-1,6-dihydro-2,2′-bipyrimidine-4-carboxamide] | > 2970
CCOC(=O)c1ccc([C@H](C)NC(=O)c2cc(=O)[nH]c(-c3ncccn3)n2)cc1 [Example 431, ethyl 4-[(1S)-1-{[(6-oxo-1,6-dihydro-2,2′-bipyrimidin-4-yl)carbonyl]amino}ethyl]benzoate] | ~2890
CCOC(=O)c1ccc([C@@H](C)NC(=O)c2cc(=O)[nH]c(-c3ncccn3)n2)cc1 [Example 432, ethyl 4-[(1R)-1-{[(6-oxo-1,6-dihydro-2,2′-bipyrimidin-4-yl)carbonyl]amino}ethyl]benzoate] | > 2970
O=C(N[C@@H]1CCCc2cc(C(F)(F)F)ccc21)c1cc(=O)[nH]c(-c2ncccn2)n1 [Example 433, 6-oxo-N-[(1R)-6-(trifluoromethyl)-1,2,3,4-tetrahydronaphthalen-1-yl]-1,6-dihydro-2,2′-bipyrimidine-4-carboxamide] | ~1430
C[C@H](O)[C@@H](NC(=O)c1cc(=O)[nH]c(C2CC2)n1)c1ccc(C(F)(F)F)cc1 [Example 442, 2-cyclopropyl-N-{(1S,2S)-2-hydroxy-1-[4-(trifluoromethyl)phenyl]propyl}-6-oxo-1,6-dihydropyrimidine-4-carboxamide] | > 2970
COc1ccc(C(C)(C)c2nc(C(=O)N[C@@H](c3ccc(C(F)(F)F)cc3)C(C)(C)C)cc(=O)[nH]2)cc1 [Example 456, N-{(1R)-2,2-dimethyl-1-[4-(trifluoromethyl)phenyl]propyl}-2-[1-(4-methoxyphenyl)-1-methylethyl]-6-oxo-1,6-dihydropyrimidine-4-carboxamide] | 98
COc1ccc(C(C)(C)c2nc(C(=O)N[C@@H](c3ccc(SC(F)(F)F)cc3)C(C)(C)C)cc(=O)[nH]2)cc1 [Example 488, N-[(1R)-2,2-dimethyl-1-{4-[(trifluoromethyl)sulfanyl]phenyl}propyl]-2-[1-(4-methoxyphenyl)-1-methylethyl]-6-oxo-1,6-dihydropyrimidine-4-carboxamide] | 116
COc1ccc(C(C)(C)c2nc(C(=O)N[C@@H](c3ccc(C(F)(F)F)c(F)c3)C3CC3)cc(=O)[nH]2)cc1 [Example 499, N-{(R)-cyclopropyl[3-fluoro-4-(trifluoromethyl)phenyl]methyl}-2-[1-(4-methoxyphenyl)-1-methylethyl]-6-oxo-1,6-dihydropyrimidine-4-carboxamide] | 115

More lines, now with the values ahead:

Ki [nM] | SMILES
533 | CC(NC(=O)c1cc(=O)[nH]c(-c2ccccc2)n1)c1ccc(C#N)cc1 (centres unmarked) [Example 370, N-[1-(4-cyanophenyl)ethyl]-6-oxo-2-phenyl-1,6-dihydropyrimidine-4-carboxamide]
2040 | CC(C)(C)c1ccc(CCNC(=O)c2cc(=O)[nH]c(-c3ccccc3)n2)cc1 [Example 375, N-[2-(4-tert-butylphenyl)ethyl]-6-oxo-2-phenyl-1,6-dihydropyrimidine-4-carboxamide]
891 | CC(NC(=O)c1cc(=O)[nH]c(-c2ccccc2)n1)c1ccc2c(c1)OCO2 (centres unmarked) [Example 376, N-[1-(1,3-benzodioxol-5-yl)ethyl]-6-oxo-2-phenyl-1,6-dihydropyrimidine-4-carboxamide]
~20400 | COc1ccc(C(NC(=O)c2cc(=O)[nH]c(-c3ccccc3)n2)c2ccc(C(F)(F)F)cc2)cc1 (centres unmarked) [Example 381, N-{(4-methoxyphenyl)[4-(trifluoromethyl)phenyl]methyl}-6-oxo-2-phenyl-1,6-dihydropyrimidine-4-carboxamide]
3120 | CC(NC(=O)c1cc(=O)[nH]c(-c2ccccc2)n1)c1ccc(S(C)(=O)=O)cc1 (centres unmarked) [Example 382, N-{1-[4-(methylsulfonyl)phenyl]ethyl}-6-oxo-2-phenyl-1,6-dihydropyrimidine-4-carboxamide]
8980 | C[C@H](c1ccc(C(F)(F)F)cc1)N(C)C(=O)c1cc(=O)[nH]c(-c2ccccc2)n1 [Example 389, N-methyl-6-oxo-2-phenyl-N-{(1R)-1-[4-(trifluoromethyl)phenyl]ethyl}-1,6-dihydropyrimidine-4-carboxamide]
1700 | CC(C)(NC(=O)c1cc(=O)[nH]c(-c2ccccc2)n1)c1ccccc1 [Example 390, N-(1-methyl-1-phenylethyl)-6-oxo-2-phenyl-1,6-dihydropyrimidine-4-carboxamide]
2220 | C[C@H](NC(=O)c1cc(=O)[nH]c(-c2ccccc2)n1)c1ccc(Cl)cc1 [Example 394, N-[(1S)-1-(4-chlorophenyl)ethyl]-6-oxo-2-phenyl-1,6-dihydropyrimidine-4-carboxamide]
2050 | CC(NC(=O)c1cc(=O)[nH]c(-c2ccccc2)n1)c1cccc(C(F)(F)F)c1 (centres unmarked) [Example 395, 6-oxo-2-phenyl-N-{1-[3-(trifluoromethyl)phenyl]ethyl}-1,6-dihydropyrimidine-4-carboxamide]
407 | O=C(NC(c1ccncc1)c1ccc(C(F)(F)F)cc1)c1cc(=O)[nH]c(-c2ccccc2)n1 (centres unmarked) [Example 399, 6-oxo-2-phenyl-N-{pyridin-4-yl[4-(trifluoromethyl)phenyl]methyl}-1,6-dihydropyrimidine-4-carboxamide]
1070 | CC(C)(NC(=O)c1cc(=O)[nH]c(-c2ccccc2)n1)c1cccc(Br)c1 [Example 400, N-[1-(3-bromophenyl)-1-methylethyl]-6-oxo-2-phenyl-1,6-dihydropyrimidine-4-carboxamide]
1910 | COc1cc(C(F)(F)F)ccc1[C@H](C)NC(=O)c1cc(=O)[nH]c(-c2ccccc2)n1 [Example 403, N-{(1S)-1-[2-methoxy-4-(trifluoromethyl)phenyl]ethyl}-6-oxo-2-phenyl-1,6-dihydropyrimidine-4-carboxamide]
226 | COC(=O)C(NC(=O)c1cc(=O)[nH]c(-c2ccccc2)n1)c1ccc(C(F)(F)F)cc1 (centres unmarked) [Example 406, methyl {[(6-oxo-2-phenyl-1,6-dihydropyrimidin-4-yl)carbonyl]amino}[4-(trifluoromethyl)phenyl]acetate]
136 | CC(C)c1ccc(CNC(=O)c2cc(=O)[nH]c(-c3ccccc3)n2)cc1 [Example 414, N-[4-(1-methylethyl)benzyl]-6-oxo-2-phenyl-1,6-dihydropyrimidine-4-carboxamide]
1770 | CC(NC(=O)c1cc(=O)[nH]c(-c2ccccc2)n1)c1ccccc1-c1ccccc1 (centres unmarked) [Example 416, N-(1-biphenyl-2-ylethyl)-6-oxo-2-phenyl-1,6-dihydropyrimidine-4-carboxamide]
1840 | CC(NC(=O)c1cc(=O)[nH]c(-c2ccccc2)n1)c1cccc(OC(F)(F)F)c1 (centres unmarked) [Example 422, 6-oxo-2-phenyl-N-{1-[3-(trifluoromethoxy)phenyl]ethyl}-1,6-dihydropyrimidine-4-carboxamide]
8130 | C[C@H](NC(=O)c1cc(=O)[nH]c(-c2ccccc2)n1)c1ccc([N+](=O)[O-])cc1 [Example 458, N-[(1S)-1-(4-nitrophenyl)ethyl]-6-oxo-2-phenyl-1,6-dihydropyrimidine-4-carboxamide]
224 | C[C@@H](NC(=O)c1cc(=O)[nH]c(-c2ccccc2)n1)c1ccc([N+](=O)[O-])cc1 [Example 459, N-[(1R)-1-(4-nitrophenyl)ethyl]-6-oxo-2-phenyl-1,6-dihydropyrimidine-4-carboxamide]
371 | COc1ccc(C(C)(C)NC(=O)c2cc(=O)[nH]c(-c3ccccc3)n2)cc1 [Example 460, N-[1-(4-methoxyphenyl)-1-methylethyl]-6-oxo-2-phenyl-1,6-dihydropyrimidine-4-carboxamide]
